From PMC11078990, “Identification and characterization of small molecule inhibitors of the LINE-1 retrotransposon endonuclease” (Nature Communications, 2024)
Values joined by “and” are separate entries in the source; they are usually repeats but may differ in a detail not shown here. Equal entries are not always repeated. Where two headings read alike, the source gives them in different places.

Columns and labels:
APE1 = molecular target: T1, APE1 (Homo sapiens, UniProt P27695); test: APE1 fluorescent oligonucleotide activity assay (abasic site substrate); format: biochemical; conditions: for Percent APE1 activity, average / Percent APE1 activity, replicates: 250 µM, Supplementary Fig. 6b; for Percent APE1 activity, average: n=3; for Percent APE1 activity, replicates: replicates 1-3; for APE1 percent activity, Replicate 1 / APE1 percent activity, Replicate 2 / APE1 percent activity, Replicate 3 / APE1 percent activity, average: compound at 25 μM; for APE1 percent activity, average: average of 3 replicates; for activity at 25 µM: inhibitors at 25 μM, relative to 0 μM inhibitor control, mean ± s.d., 3 independent experiments, read-out: APE1 activity (%)
T1 construct: purchased New England Biolabs (NEB) M0282S

L1 retrotransposition = test: HeLa dual-luciferase L1 retrotransposition assay; format: cell-based, human; conditions: for L1 retrotransposition, average: average of 4 replicates; for Luciferase (retrotransposition), replicates: Replicates 1-4; for Effect on L1 retrotransposition: HeLa cells
[1] = system: substrate oligonucleotide used in the EN activity assay; format: binding; design: key to Binding Detected? (Y/N): Binding Detected? (Y/N); Binding Detected? (Y/N)
HeLa Tet-On cells = conditions: human, 48 h
[2] = molecular target: L1 EN (LINE-1 retrotransposon endonuclease domain) (Homo sapiens, UniProt O00370, N5T); test: Fluorescent oligonucleotide EN nicking activity assay; format: biochemical; conditions: technical replicates 1-3, Fig. 2b source data
L1 EN (LINE-1 retrotransposon endonuclease domain), sequence (O00370 1-239 N5T): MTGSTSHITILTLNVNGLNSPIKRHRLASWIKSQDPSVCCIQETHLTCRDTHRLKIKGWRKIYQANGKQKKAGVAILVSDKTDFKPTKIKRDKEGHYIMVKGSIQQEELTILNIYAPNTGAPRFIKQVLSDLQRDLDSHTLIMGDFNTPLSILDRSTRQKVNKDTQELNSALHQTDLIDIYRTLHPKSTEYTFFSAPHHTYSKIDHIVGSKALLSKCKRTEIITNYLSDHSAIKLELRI

[3] = Figure 4a Graph 2, 50 μM, 0 μM average 9.679
[4] = [Inhibitor] 25 μM, read-out: EN activity, percent of no inhibitor control
[5] = [Inhibitor] 100 μM, read-out: EN activity, percent of no inhibitor control
[6] = [Inhibitor] 250 μM, read-out: EN activity, percent of no inhibitor control
[7] = [Inhibitor] 500 μM, read-out: EN activity, percent of no inhibitor control
[8] = [Inhibitor] 1000 μM, read-out: EN activity, percent of no inhibitor control
[9] = Figure 4a Graph 4, 25μM, 0μM average 3.426

`C[C@H]1C[C@H](C)CN(CCCNc2ccc(C(=O)Nc3ccc(C(F)(F)F)cc3)cc2[N+](=O)[O-])C1` [AD9] was tested, and the “Percent APE1 activity, average” value (APE1) was 100.1%, the “Percent APE1 activity, replicates” value (APE1) was 118.893% and 92.7882% and 88.5535% and the “APE1 percent activity, Replicate 1” value (APE1) was 119.501%. For the same molecule, the “APE1 percent activity, Replicate 2” value (APE1) was 114.522%, the “APE1 percent activity, Replicate 3” value (APE1) was 113.798% and the “APE1 percent activity, average” value (APE1) was 115.94%. For the same molecule, the activity at 25 µM (APE1) was 116 ± 3.1%, the “L1 retrotransposition, average” value (L1 retrotransposition; 0.2 μM inhibitor, Figure 4b concentration-dependent inhibition) was 1.898 and the “L1 retrotransposition, average” value (L1 retrotransposition; 0.5 μM inhibitor, Figure 4b) was 2.458. For the same molecule, the “L1 retrotransposition, average” value (L1 retrotransposition; 1 μM inhibitor, Figure 4b) was 2.133, the “L1 retrotransposition, average” value (L1 retrotransposition; 5 μM inhibitor, Figure 4b) was 1.566 and the “L1 retrotransposition, average” value (L1 retrotransposition; 10 μM inhibitor, Figure 4b) was 0.7154. The “L1 retrotransposition, average” value (L1 retrotransposition; 20 μM inhibitor, Figure 4b) was 1.222, the “L1 retrotransposition, average” value (L1 retrotransposition; 35 μM inhibitor, Figure 4b) was 0.4788 and the “Luciferase (retrotransposition), average” value (L1 retrotransposition; [3]) was 2.116. The “Luciferase (retrotransposition), replicates” value (L1 retrotransposition; [3]) was 3.949 and 1.344 and 2.584 and 0.5874, the “Effect on L1 retrotransposition” value (L1 retrotransposition) was “some activity in the retrotransposition assay” and the “Binding Detected? (Y/N)” value [1] was “N”. The “PrestoBlue (viability), average” value (HeLa Tet-On cells; 50 μM) was 17.51, the “EN activity, percent of no inhibitor control” value ([2]; [Inhibitor] 2 μM, 2 µM) was 91.056% and 80.4005% and the remaining activity at 2 µM ([2]; [Inhibitor] 2 μM, read-out: EN activity, percent of no inhibitor control) was 100%. For the same molecule, the “EN activity, percent of no inhibitor control” value ([2]; [Inhibitor] 10 μM, 10 µM) was 101.14% (2×) and 73.8761%, the “EN activity, percent of no inhibitor control” value ([2]; [Inhibitor] 25 μM, 25 µM) was 96.0191% and the remaining activity at 25 µM [2, 4] was 109%. For the same molecule, the “EN activity, percent of no inhibitor control” value ([2]; [Inhibitor] 50 μM, 50 µM) was 139.387% and 77.4751% and 117.995%, the “EN activity, percent of no inhibitor control” value ([2]; [Inhibitor] 100 μM, 100 µM) was 89.4903% and the remaining activity at 100 µM [2, 5] was 85.7%. The “EN activity, percent of no inhibitor control” value ([2]; [Inhibitor] 250 μM, 250 µM) was 70.6219%, the remaining activity at 250 µM [2, 6] was 83.4% and the “EN activity, percent of no inhibitor control” value ([2]; [Inhibitor] 500 μM, 500 µM) was 47.0918%. For the same molecule, the remaining activity at 500 µM [2, 7] was 45.2%, the “EN activity, percent of no inhibitor control” value ([2]; [Inhibitor] 1000 μM, 1000 µM) was 38.5425% and the remaining activity at 1000 µM [2, 8] was 31.3%. For the same molecule, the “EN activity, percent of no inhibitor control” value ([2]; [Inhibitor] 2000 μM, 2000 µM) was 14.4137% and the remaining activity at 2000 µM ([2]; [Inhibitor] 2000 μM, read-out: EN activity, percent of no inhibitor control) was 28.7%.
For `COc1ccc(OC)c(NS(=O)(=O)c2ccc(NS(=O)(=O)c3cccc([N+](=O)[O-])c3)cc2)c1` [AD36], the “Percent APE1 activity, average” value (APE1) was 108.9%, the “Percent APE1 activity, replicates” value (APE1) was 115.202% and 104.299% and 107.269% and the “APE1 percent activity, Replicate 1” value (APE1) was 121.786%. The “APE1 percent activity, Replicate 2” value (APE1) was 104.892%, the “APE1 percent activity, Replicate 3” value (APE1) was 127.866% and the “APE1 percent activity, average” value (APE1) was 118.181%. For the same molecule, the activity at 25 µM (APE1) was 118 ± 11.9%, the “L1 retrotransposition, average” value (L1 retrotransposition; 0.5 μM inhibitor, Figure 4b) was 4.647 and the “L1 retrotransposition, average” value (L1 retrotransposition; 1 μM inhibitor, Figure 4b) was 4.699. The “L1 retrotransposition, average” value (L1 retrotransposition; 5 μM inhibitor, Figure 4b) was 4.066, the “L1 retrotransposition, average” value (L1 retrotransposition; 10 μM inhibitor, Figure 4b) was 4.169 and the “L1 retrotransposition, average” value (L1 retrotransposition; 25 μM inhibitor, Figure 4b) was 2.81. The “L1 retrotransposition, average” value (L1 retrotransposition; 50 μM inhibitor, Figure 4b) was 1.253, the “Luciferase (retrotransposition), average” value (L1 retrotransposition; [9]) was 1.266 and the “Luciferase (retrotransposition), replicates” value (L1 retrotransposition; [9]) was 1.765 and 0.7621 and 1.278 and 1.259. For the same molecule, the “Effect on L1 retrotransposition” value (L1 retrotransposition) was “some activity in the retrotransposition assay”, the “Binding Detected? (Y/N)” value [1] was “N” and the “PrestoBlue (viability), average” value (HeLa Tet-On cells; 25 μM) was 15.2. The “EN activity, percent of no inhibitor control” value ([2]; [Inhibitor] 5 μM, 5 µM) was 91.0252% and 84.1869%, the remaining activity at 5 µM ([2]; [Inhibitor] 5 μM, read-out: EN activity, percent of no inhibitor control) was 89.6% and the “EN activity, percent of no inhibitor control” value ([2]; [Inhibitor] 25 μM, 25 µM) was 101.21% and 100.403%. The remaining activity at 25 µM [2, 4] was 82%, the “EN activity, percent of no inhibitor control” value ([2]; [Inhibitor] 100 μM, 100 µM) was 79.4211% and 84.6024% and the remaining activity at 100 µM [2, 5] was 96.7%. For the same molecule, the “EN activity, percent of no inhibitor control” value ([2]; [Inhibitor] 250 μM, 250 µM) was 66.0801% and 55.4717%, the remaining activity at 250 µM [2, 6] was 47.9% and the “EN activity, percent of no inhibitor control” value ([2]; [Inhibitor] 500 μM, 500 µM) was 50.9528% and 49.6683%. For the same molecule, the remaining activity at 500 µM [2, 7] was 60.1%, the “EN activity, percent of no inhibitor control” value ([2]; [Inhibitor] 750 μM, 750 µM) was 44.0742% and 35.8636% and the remaining activity at 750 µM ([2]; [Inhibitor] 750 μM, read-out: EN activity, percent of no inhibitor control) was 31.6%. For the same molecule, the “EN activity, percent of no inhibitor control” value ([2]; [Inhibitor] 1000 μM, 1000 µM) was 29.1344% and 22.6241%, the remaining activity at 1000 µM [2, 8] was 19.6% and the “EN activity, percent of no inhibitor control” value ([2]; [Inhibitor] 1750 μM, 1750 µM) was 17.5242% and 11.215% and 25.1816%. For the same molecule, the “EN activity, percent of no inhibitor control” value ([2]; [Inhibitor] 2500 μM, 2500 µM) was 18.2597% and 42.0507% and 24.6475%.
